Reference: patent US11109593B2, “Isoxazolin-5-one derivative and herbicide containing same as active ingredient” (HOKKO CHEMICAL INDUSTRY CO., LTD., priority 2017, dated 2021)

Tests used:
Type in all cases: in vivo
Echinochloa crus-galli [1] = assay: Test Example 3: herbicidal effect test by treatment of dry field farming soil (one day after seeding); details: 120 g/10a active ingredient, evaluated 14 days after treatment
In short: (§1)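 Alluvial dry-field soil in pots, top 1 cm mixed with 20 seeds per weed species. One day after seeding, the water-diluted emulsion was sprayed onto the soil surface at 100 L per 10 ares (120 g active ingredient per 10 ares). Duplicate pots; herbicidal rate (%) from plant dry weight versus untreated, 14 days after treatment.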

southern crabgrass [2] = assay: as above; details: 120 g/10a active ingredient, evaluated 14 days after treatment
In short: as §1

Chenopodium album [3] = assay: as above; details: 120 g/10a active ingredient, evaluated 14 days after treatment
In short: as §1

Amaranthus viridis [4] = assay: as above; details: 120 g/10a active ingredient, evaluated 14 days after treatment
In short: as §1

Echinochloa crus-galli [5] = assay: Test Example 2: herbicidal effect test by treatment during growing period in paddy rice cultivation (seven days after seeding); details: 120 g/10a active ingredient, assessed 14 days after treatment, dry weight vs untreated area
In short: (§2)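 Seeds sown 0–1 cm deep in puddled, fertilised paddy soil with about 3 cm standing water in a glass greenhouse. Diluted emulsion dropped into the water seven days after seeding at 120 g active ingredient per 10 ares. Herbicidal rate (%) from mean dry weight vs untreated, duplicate, 14 days after treatment.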

[6] = system: broad leaf weeds (Lindernia pyxidaria and Monochoria vaginalis); assay: as above; details: 120 g/10a active ingredient, assessed 14 days after treatment, dry weight vs untreated area
In short: as §2

Scirpus juncoides [7] = assay: as above; details: 120 g/10a active ingredient, assessed 14 days after treatment, dry weight vs untreated area
In short: as §2

Echinochloa crus-galli [8] = assay: Test Example 4: herbicidal effect test by treatment of leave and stem in dry field farming (seven days after seeding); details: 120 g/10a active ingredient; emulsion sprayed seven days after seeding; evaluated 14 days after treatment
In short: (§3)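 Weeds were seeded at 20 seeds per species into the top 1 cm of alluvial upland soil in pots, then sprayed 7 days after seeding with water-diluted emulsifiable concentrate at 100 L/10 a, giving 120 g active ingredient/10 a. Duplicate pots; herbicidal rate (%) was 14 days post-treatment, from dry weight versus untreated.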

southern crabgrass [9] = assay: as above; details: 120 g/10a active ingredient; emulsion sprayed seven days after seeding; evaluated 14 days after treatment
In short: as §3

Chenopodium album [10] = assay: as above; details: 120 g/10a active ingredient; emulsion sprayed seven days after seeding; evaluated 14 days after treatment
In short: as §3

Amaranthus viridis [11] = assay: as above; details: 120 g/10a active ingredient; emulsion sprayed seven days after seeding; evaluated 14 days after treatment
In short: as §3

Echinochloa crus-galli [12] = assay: Test Example 1: herbicidal effect test by treatment of rice paddy soil (immediately after seeding); details: 120 g/10a active ingredient, dry weight vs untreated area, 14 days after treatment
In short: (§4)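 Paddy soil in pots with compound fertilizer, puddled; 30 seeds per species sown at 0–1 cm, flooded ~3 cm, greenhouse. Water-diluted emulsions dropped onto water immediately after seeding at 120 g active ingredient per 10 ares, duplicate. Herbicidal rate (%) from plant dry weight versus untreated, 14 days after treatment.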

[13] = system: broad leaf weeds (Lindernia pyxidaria and Monochoria vaginalis); assay: as above; details: 120 g/10a active ingredient, dry weight vs untreated area, 14 days after treatment
In short: as §4

Scirpus juncoides [14] = assay: as above; details: 120 g/10a active ingredient, dry weight vs untreated area, 14 days after treatment
In short: as §4

C=CCOC(=O)N(c1ccccc1Cc1c(C)n(C(C)CC)oc1=O)S(=O)(=O)C(F)(F)F (centres unmarked) [Compound 1-706]
40%: herbicidal effect (herbicidal rate), Chenopodium album (Chenopodium album [10]) | herbicidal effect (herbicidal rate), Amaranthus viridis (Amaranthus viridis [11])
90%: herbicidal rate, Echinochloa crus-galli (Echinochloa crus-galli [1]) | herbicidal rate, southern crabgrass (southern crabgrass [2]) | herbicidal rate, Chenopodium album (Chenopodium album [3]) | herbicidal rate, Amaranthus viridis (Amaranthus viridis [4]) | Herbicidal rate (%) Echinochloa crus-galli (Echinochloa crus-galli [5]) | Herbicidal rate (%) Lindernia pyxidaria [6] | Herbicidal rate (%) Monochoria vaginalis [6] | Herbicidal rate (%) Scirpus juncoides (Scirpus juncoides [7]) | herbicidal effect (herbicidal rate), Echinochloa crus-galli (Echinochloa crus-galli [8]) | herbicidal effect (herbicidal rate), southern crabgrass (southern crabgrass [9]) | Herbicidal rate (%) Echinochloa crus-galli (Echinochloa crus-galli [12]) | Herbicidal rate (%) Lindernia pyxidaria [13] | Herbicidal rate (%) Monochoria vaginalis [13] | Herbicidal rate (%) Scirpus juncoides (Scirpus juncoides [14])

C=CCOC(=O)N(c1ccccc1Cc1c(C)n(CC(C)C)oc1=O)S(=O)(=O)C(F)(F)F [Compound 1-707]
90%: herbicidal rate, Echinochloa crus-galli (Echinochloa crus-galli [1]) | herbicidal rate, southern crabgrass (southern crabgrass [2]) | herbicidal rate, Chenopodium album (Chenopodium album [3]) | herbicidal rate, Amaranthus viridis (Amaranthus viridis [4]) | Herbicidal rate (%) Echinochloa crus-galli (Echinochloa crus-galli [5]) | Herbicidal rate (%) Lindernia pyxidaria [6] | Herbicidal rate (%) Monochoria vaginalis [6] | Herbicidal rate (%) Scirpus juncoides (Scirpus juncoides [7]) | herbicidal effect (herbicidal rate), Echinochloa crus-galli (Echinochloa crus-galli [8]) | herbicidal effect (herbicidal rate), southern crabgrass (southern crabgrass [9]) | Herbicidal rate (%) Echinochloa crus-galli (Echinochloa crus-galli [12]) | Herbicidal rate (%) Lindernia pyxidaria [13] | Herbicidal rate (%) Monochoria vaginalis [13] | Herbicidal rate (%) Scirpus juncoides (Scirpus juncoides [14])
40%: herbicidal effect (herbicidal rate), Chenopodium album (Chenopodium album [10]) | herbicidal effect (herbicidal rate), Amaranthus viridis (Amaranthus viridis [11])

C=CCOC(=O)N(c1ccccc1Cc1c(C)n(C(C)COC)oc1=O)S(=O)(=O)C(F)(F)F (centres unmarked) [Compound 1-708]
90%: herbicidal rate, Echinochloa crus-galli (Echinochloa crus-galli [1]) | herbicidal rate, southern crabgrass (southern crabgrass [2]) | herbicidal rate, Chenopodium album (Chenopodium album [3]) | herbicidal rate, Amaranthus viridis (Amaranthus viridis [4]) | Herbicidal rate (%) Echinochloa crus-galli (Echinochloa crus-galli [5]) | Herbicidal rate (%) Lindernia pyxidaria [6] | Herbicidal rate (%) Monochoria vaginalis [6] | Herbicidal rate (%) Scirpus juncoides (Scirpus juncoides [7]) | herbicidal effect (herbicidal rate), Echinochloa crus-galli (Echinochloa crus-galli [8]) | herbicidal effect (herbicidal rate), southern crabgrass (southern crabgrass [9]) | Herbicidal rate (%) Echinochloa crus-galli (Echinochloa crus-galli [12]) | Herbicidal rate (%) Lindernia pyxidaria [13] | Herbicidal rate (%) Monochoria vaginalis [13] | Herbicidal rate (%) Scirpus juncoides (Scirpus juncoides [14])
40%: herbicidal effect (herbicidal rate), Chenopodium album (Chenopodium album [10]) | herbicidal effect (herbicidal rate), Amaranthus viridis (Amaranthus viridis [11])

C=CCOC(=O)N(c1ccccc1Cc1c(C)n(CCSC)oc1=O)S(=O)(=O)C(F)(F)F [Compound 1-709]
40%: herbicidal effect (herbicidal rate), Chenopodium album (Chenopodium album [10]) | herbicidal effect (herbicidal rate), Amaranthus viridis (Amaranthus viridis [11])
90%: herbicidal rate, Echinochloa crus-galli (Echinochloa crus-galli [1]) | herbicidal rate, southern crabgrass (southern crabgrass [2]) | herbicidal rate, Chenopodium album (Chenopodium album [3]) | herbicidal rate, Amaranthus viridis (Amaranthus viridis [4]) | Herbicidal rate (%) Echinochloa crus-galli (Echinochloa crus-galli [5]) | Herbicidal rate (%) Lindernia pyxidaria [6] | Herbicidal rate (%) Monochoria vaginalis [6] | Herbicidal rate (%) Scirpus juncoides (Scirpus juncoides [7]) | herbicidal effect (herbicidal rate), Echinochloa crus-galli (Echinochloa crus-galli [8]) | herbicidal effect (herbicidal rate), southern crabgrass (southern crabgrass [9]) | Herbicidal rate (%) Echinochloa crus-galli (Echinochloa crus-galli [12]) | Herbicidal rate (%) Lindernia pyxidaria [13] | Herbicidal rate (%) Monochoria vaginalis [13] | Herbicidal rate (%) Scirpus juncoides (Scirpus juncoides [14])

C=CCOC(=O)N(c1ccccc1Cc1c(C)n(C(C)c2ccccc2)oc1=O)S(=O)(=O)C(F)(F)F (centres unmarked) [Compound 1-710]
40%: herbicidal effect (herbicidal rate), Chenopodium album (Chenopodium album [10]) | herbicidal effect (herbicidal rate), Amaranthus viridis (Amaranthus viridis [11])
90%: herbicidal rate, Echinochloa crus-galli (Echinochloa crus-galli [1]) | herbicidal rate, southern crabgrass (southern crabgrass [2]) | herbicidal rate, Chenopodium album (Chenopodium album [3]) | herbicidal rate, Amaranthus viridis (Amaranthus viridis [4]) | Herbicidal rate (%) Echinochloa crus-galli (Echinochloa crus-galli [5]) | Herbicidal rate (%) Lindernia pyxidaria [6] | Herbicidal rate (%) Monochoria vaginalis [6] | Herbicidal rate (%) Scirpus juncoides (Scirpus juncoides [7]) | herbicidal effect (herbicidal rate), Echinochloa crus-galli (Echinochloa crus-galli [8]) | herbicidal effect (herbicidal rate), southern crabgrass (southern crabgrass [9]) | Herbicidal rate (%) Echinochloa crus-galli (Echinochloa crus-galli [12]) | Herbicidal rate (%) Lindernia pyxidaria [13] | Herbicidal rate (%) Monochoria vaginalis [13] | Herbicidal rate (%) Scirpus juncoides (Scirpus juncoides [14])
